Consider 14 molecules from patent US12466810B2, “N-(5-(6-ethoxypyrazin-2-yl)pyridin-2-yl)-4-(2-(methylsulfonamido)pyrimidin-4-yl) tetrahydro-2H-pyran-4-carboxamide derivatives and related compounds as human CTPS1 inhibitors for the treatment of proliferative diseases” (Step Pharma S.A.S., priority 2019, dated 2025).

In experiment [1] the target is T1, human CTPS1 (Homo sapiens, UniProt P17812).
T1 construct: FLAG (GG linker + DYKDDDDK); His8 (GG linker + HHHHHHHH); purchased Proteros biostructures GmbH
T1 sequence (P17812 1-591): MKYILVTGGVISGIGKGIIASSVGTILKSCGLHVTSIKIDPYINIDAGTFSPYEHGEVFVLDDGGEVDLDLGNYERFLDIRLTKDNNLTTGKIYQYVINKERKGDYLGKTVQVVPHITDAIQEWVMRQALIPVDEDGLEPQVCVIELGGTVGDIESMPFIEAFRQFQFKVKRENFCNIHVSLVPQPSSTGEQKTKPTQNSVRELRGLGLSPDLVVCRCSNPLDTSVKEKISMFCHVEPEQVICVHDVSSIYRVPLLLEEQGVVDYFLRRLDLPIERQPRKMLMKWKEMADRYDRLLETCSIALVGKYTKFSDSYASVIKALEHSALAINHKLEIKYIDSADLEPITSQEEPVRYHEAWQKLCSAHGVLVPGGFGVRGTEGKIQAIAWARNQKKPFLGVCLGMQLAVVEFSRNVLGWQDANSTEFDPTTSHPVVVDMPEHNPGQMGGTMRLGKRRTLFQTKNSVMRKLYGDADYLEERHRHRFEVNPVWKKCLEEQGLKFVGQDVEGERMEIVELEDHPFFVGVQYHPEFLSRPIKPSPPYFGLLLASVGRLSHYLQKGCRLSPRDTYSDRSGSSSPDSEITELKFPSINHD
Put plainly: Human CTPS1 enzyme inhibition (ADP-Glo Max assay). It counts as biochemical. As to conditions: 25° C., read-out: Human CTPS1 Enzyme Inhibition IC50, grouped by potency range. As for the experimental part: The enzyme inhibitory activities of compounds invented against the target of interest were determined using the ADP-Glo™ Max assay (Promega, UK). Assays for human CTPS1 were performed in 1× assay buffer containing 50 mM Tris, 10 mM MgCl2, 0.01% Tween-20, pH to 8.0 accordingly. Finally, immediately before use, L-cysteine was added to the 1× assay buffer to a final concentration of 2 mM. All reagents are from Sigma-Aldrich unless specified otherwise.
Human full length active C-terminal FLAG-Hiss-tag CTPS1 (UniProtKB—P17812, CTPS1[1-591]-[…] (CTPS1[1-591]-SEQ ID NO: 1)) was obtained from Proteros biostructures GmbH.
3× human CTPS1 protein was prepared in 1× assay buffer to the final working protein concentration required for the reaction. A 2 uL volume per well of 3× human CTPS1 protein was mixed with 2 uL per well of 3× test compound (compound prepared in 1× assay buffer to an appropriate final 3× compound concentration respective to the concentration response curve designed for the compounds under test) for 10 minutes at 25° C. The enzymatic reaction was then initiated by addition of a 2 uL per well volume of a pre-mixed substrate mix (UltraPure ATP from ADP-GIo™ Max kit (0.31 mM), GTP (0.034 mM), UTP (0.48 mM) and L-glutamine (0.186 mM)) and the mixture was incubated for an appropriate amount of time within the determined linear phase of the reaction at 25° C. under sealed plate conditions with constant agitation at 500 revolutions per minute (rpm). ADP-GIo™ Max reagent was added for 60 minutes (6 μL per well) and subsequently ADP-GIo™ Max development reagent was added for 60 minutes (12 uL per well) prior to signal detection in a microplate reader (EnVision® Multilabel Reader, Perkin Elmer). Following each reagent addition over the course of the assay, assay plates were pulse centrifuged for 30 seconds at 500 rpm.
In all cases, the enzyme converts ATP to ADP and the ADP-Glo™ Max reagent subsequently depletes any remaining endogenous ATP in the reaction system. The ADP-Glo™ Max detection reagent converts the ADP that has been enzymatically produced back into ATP and using ATP as a substrate together with luciferin for the enzyme luciferase, light is generated which produces a detectable luminescence. […] The percentage inhibition produced by each concentration of compound was calculated using the equation shown below: […]
(§1) Percentage inhibition was then plotted against compound concentration, and the 50% inhibitory concentration (IC50) was determined from the resultant concentration-response curve.

Experiment [2] concerns Human CTPS1 Versus CTPS2. Put plainly: RapidFire/MS-based enzyme selectivity assay, human CTPS1 versus CTPS2. It counts as biochemical. As to conditions: RapidFire/MS IC50s. As for the experimental part: Human CTPS1 Versus CTPS2 Selectivity Assessment by RapidFire/MS Analysis.
The enzyme inhibitory activities against each target isoform of interest may be determined for the compounds of the invention using an optimised RapidFire high-throughput mass spectrometry (RF/MS) assay format. RF/MS assays for both human CTPS1 and CTPS2 may be performed in assay buffer consisting of 50 mM HEPES (Merck), 20 mM MgCl2, 5 mM KCl, 1 mM DTT, 0.01% Tween-20, pH to 8.0 accordingly. Human full-length active C-terminal FLAG-His-tag CTPS1 (UniProtKB—P17812, CTPS1[1-591]-[…] (CTPS1[1-591]-SEQ ID NO: 1)) may be obtained from Proteros biostructures GmbH. Human full length active C-terminal FLAG-His-Avi tagged CTPS2 (UniProtKB—Q9NRF8, CTPS2 [1-586]—[…] (CTPS2 [1-586]-SEQ ID NO: 2)) may be obtained from Harker Bio.
Human CTPS (1 or 2) protein may be prepared in 1× assay buffer to the final working protein concentration required for the reaction. A 2 uL volume per well of 2×CTPS (1 or 2) protein may be mixed with 40 nL of compound using acoustic (ECHO) delivery and incubated for 10 minutes at 25° C. Each isoform enzymatic reaction may be subsequently initiated by addition of 2 uL per well of a 2× substrate mix in assay buffer. For hCTPS1: ATP (0.3 mM), UTP (0.2 mM), GTP (0.07 mM) and L-glutamine (0.1 mM). For hCTPS2: ATP (0.1 mM), UTP (0.04 mM), GTP (0.03 mM) and L-glutamine (0.1 mM). Each mixture may be incubated for an appropriate amount of time per isoform within the determined linear phase of the reaction at 25° C. A 60 uL volume of stop solution (1% formic acid with 0.5 uM ^13C9-^15N3-CTP in H2O) may be added and the plate immediately heat-sealed and centrifuged for 10 minutes at 4,000 rpm. Following centrifugation, plates may be loaded onto the Agilent RapidFire microfluidic solid phase extraction system coupled to an API4000 triple quadrupole mass spectrometer (RF/MS) for analysis.
In all cases, the enzyme converts UTP to CTP. Highly specific and sensitive multiple reaction monitoring (MRM) MS methods may be optimised for the detection of the enzymatic reaction product, CTP, and the stable isotope labelled product standard ^13C-^15N-CTP. Readout for data analysis may be calculated as the ratio between the peak area of the product CTP and the internal standard […]. For data reporting, the following equation may be used: […]
For each screening plate, the means of the negative (DMSO) and positive control values were used for the calculation of the respective assay window (S/B) and Z′ values. The median of the respective control values was used for calculation of percent inhibition according to the following equation: […]
as §1
Fold selectivity between CTPS1 and CTPS2 was subsequently calculated according to the following equation: […]

Regarding `CCOc1cncc(-c2ccc(C(=O)NC3(c4ccnc(NS(=O)(=O)C5CC5)n4)CCOCC3)nc2)n1` [P249, N-(4-(2-(cyclopropanesulfonamido)pyrimidin-4-yl)tetrahydro-2H-pyran-4-yl)-5-(6-ethoxypyrazin-2-yl)picolinamide], the IC50 – broadly, the concentration needed to halve the response being measured – in experiment [1] fell in the range of 100 to 1000 nM. Also, the “Fold selectivity between CTPS1 and CTPS2 (CTPS1)” value in experiment [2] was “+++ (>60 fold (+++))”.

As to `CCOc1cncc(-c2ccc(NC(=O)C3(c4ccnc(NS(=O)(=O)CC(C)C)n4)CCOCC3)nc2)n1` [P250, N-(5-(6-ethoxypyrazin-2-yl)pyridin-2-yl)-4-(2-((2-methylpropyl)sulfonamido)pyrimidin-4-yl)tetrahydro-2H-pyran-4-carboxamide], the IC50 in experiment [1] fell in the range of 100 to 1000 nM. Moreover, the “Fold selectivity between CTPS1 and CTPS2 (CTPS1)” value in experiment [2] is on record as “+++ (>60 fold (+++))”.

On to `CCOc1cncc(-c2ccc(NC(=O)C3(c4ccnc(NS(=O)(=O)C5CC5)n4)CCC3)nc2)n1` [P241, 1-(2-(cyclopropanesulfonamido)pyrimidin-4-yl)-N-(5-(6-ethoxypyrazin-2-yl)pyridin-2-yl)cyclobutane-1-carboxamide], for which the IC50 in experiment [1] is at most 100 nM. The “Fold selectivity between CTPS1 and CTPS2 (CTPS1)” value in experiment [2] is reported as “+++ (>60 fold (+++))”.

As to `CCOc1cncc(-c2ccc(NC(=O)C3(c4ccnc(NS(=O)(=O)C5CCCC5)n4)CCOCC3)nc2)n1` [P245, 4-(2-(cyclopentanesulfonamido)pyrimidin-4-yl)-N-(5-(6-ethoxypyrazin-2-yl)pyridin-2-yl)tetrahydro-2H-pyran-4-carboxamide], the IC50 in experiment [1] is 100 to 1000 nM. For the same molecule, the “Fold selectivity between CTPS1 and CTPS2 (CTPS1)” value in experiment [2] is on record as “+++ (>60 fold (+++))”.

Take `CCOc1cncc(-c2ccc(NC(=O)C3(c4ccnc(NS(=O)(=O)CC5CC5)n4)CCOCC3)nc2)n1` [P263, 4-(2-(cyclopropylmethylsulfonamido)pyrimidin-4-yl)-N-(5-(6-ethoxypyrazin-2-yl)pyridin-2-yl)tetrahydro-2H-pyran-4-carboxamide]: the IC50 in experiment [1] is 100 to 1000 nM.

Consider `CCOc1cncc(-c2ccc(NC(=O)C3(c4ccnc(NS(C)(=O)=O)n4)CCCCC3)nc2)n1` [P238, N-(5-(6-ethoxypyrazin-2-yl)pyridin-2-yl)-1-(2-(methylsulfonamido)pyrimidin-4-yl)cyclohexane-1-carboxamide], for which the IC50 in experiment [1] is at most 100 nM. In addition, the “Fold selectivity between CTPS1 and CTPS2 (CTPS1)” value in experiment [2] was “+++ (>60 fold (+++))”.

On to `CCOc1cncc(-c2ccc(NC(=O)C3(c4ccnc(NS(=O)(=O)C5(C)CC5)n4)CCOCC3)nc2)n1` [P247, N-(5-(6-ethoxypyrazin-2-yl)pyridin-2-yl)-4-(2-((1-methylcyclopropane)-1-sulfonamido)pyrimidin-4-yl)tetrahydro-2H-pyran-4-carboxamide], for which the IC50 in experiment [1] lay in the range of 100 to 1000 nM. The “Fold selectivity between CTPS1 and CTPS2 (CTPS1)” value in experiment [2] is “+++ (>60 fold (+++))”.

For `CCOc1cncc(-c2ccc(NC(=O)C3(c4nccc(NS(=O)(=O)C5CC5)n4)CCN(C)CC3)nc2)n1` [P319, 4-(4-(cyclopropanesulfonamido)pyrimidin-2-yl)-N-(5-(6-ethoxypyrazin-2-yl)pyridin-2-yl)-1-methylpiperidine-4-carboxamide], the IC50 in experiment [1] is at most 100 nM. For the same molecule, in experiment [2], the “Fold selectivity between CTPS1 and CTPS2 (CTPS1)” value is listed as “+++ (>60 fold (+++))”.

As for `CCOc1cncc(-c2ccc(NC(=O)C3(c4ccnc(NS(=O)(=O)C5CC5)n4)CCN(C)CC3)nc2)n1` [P231, 4-(2-(Cyclopropanesulfonamido)pyrimidin-4-yl)-N-(5-(6-ethoxypyrazin-2-yl)pyridin-2-yl)-1-methylpiperidine-4-carboxamide], in experiment [1], the IC50 was in the range of 100 to 1000 nM. For the same molecule, the “Fold selectivity between CTPS1 and CTPS2 (CTPS1)” value in experiment [2] is listed as “+++ (>60 fold (+++))”.

`CCOc1cncc(-c2ccc(NC(=O)C3(c4cncc(NS(=O)(=O)C5CC5)n4)CCCCC3)nc2)n1` [P239, 1-(6-(cyclopropanesulfonamido)pyrazin-2-yl)-N-(5-(6-ethoxypyrazin-2-yl)pyridin-2-yl)cyclohexane-1-carboxamide]: the IC50 in experiment [1] is at most 100 nM. For the same molecule, in experiment [2], the “Fold selectivity between CTPS1 and CTPS2 (CTPS1)” value is “+++ (>60 fold (+++))”.

For the molecule `O=C(Nc1ccc(-c2cncc(C3CC3)n2)cn1)C1(c2ccnc(NS(=O)(=O)C3CC3)n2)CCOCC1` [P252, 4-(2-(cyclopropanesulfonamido)pyrimidin-4-yl)-N-(5-(6-cyclopropylpyrazin-2-yl)pyridin-2-yl)tetrahydro-2H-pyran-4-carboxamide], the IC50 in experiment [1] is at most 100 nM. Further, in experiment [2], the “Fold selectivity between CTPS1 and CTPS2 (CTPS1)” value is “+++ (>60 fold (+++))”.

On to `CCOc1cncc(-c2ccc(NC(=O)C3(c4ccnc(NS(=O)(=O)C5CC5)n4)CCS(=O)(=O)CC3)nc2)n1` [P259, 4-(2-(cyclopropanesulfonamido)pyrimidin-4-yl)-N-(5-(6-ethoxypyrazin-2-yl)pyridin-2-yl)tetrahydro-2H-thiopyran-4-carboxamide 1,1-dioxide], for which the IC50 in experiment [1] was at most 100 nM.

Regarding `CCOc1cncc(-c2ccc(NC(=O)C3(c4ccnc(NS(=O)(=O)CC)n4)CCOCC3)nc2)n1` [P262, N-(5-(6-ethoxypyrazin-2-yl)pyridin-2-yl)-4-(2-(ethylsulfonamido)pyrimidin-4-yl)tetrahydro-2H-pyran-4-carboxamide], the IC50 in experiment [1] is at most 100 nM.

With `CCOc1cncc(-c2ccc(C(=O)NC3(c4ccnc(NS(=O)(=O)C5CC5)n4)CC3)nc2)n1` [P257, N-(1-(2-(cyclopropanesulfonamido)pyrimidin-4-yl)cyclopropyl)-5-(6-ethoxypyrazin-2-yl)picolinamide], in experiment [1], the IC50 fell in the range of 100 to 1000 nM.
